Experimental data: PubChem BioAssay (NCI)
Values joined by “and” are separate entries in the source; they are usually repeats but may differ in a detail not shown here. Equal values may be shown once.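 Results reflect a 48-hour exposure of cells in 96-well plates to compound at five concentrations. GI50 = concentration required for 50% inhibition of growth. TGI: concentration producing complete growth inhibition.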

Experiments:
Assay in all cases: NCI-60 cell line screen, 48 h
HCC-2998 colon = test system: HCC-2998 colon
HCT-116 colon = test system: HCT-116 colon
HT29 colon = test system: HT29 colon
NCI-H522 lung = test system: NCI-H522 lung
NCI/ADR-RES ovarian = test system: NCI/ADR-RES ovarian
RPMI-8226 leukemia = test system: RPMI-8226 leukemia
RXF 393 renal = test system: RXF 393 renal
SK-MEL-5 melanoma = test system: SK-MEL-5 melanoma
SR leukemia = test system: SR leukemia
UACC-257 melanoma = test system: UACC-257 melanoma

SMILES	GI50 (HCC-2998 colon)	TGI (HCC-2998 colon)	GI50 (HCT-116 colon)	TGI (HCT-116 colon)	GI50 (HT29 colon)	TGI (HT29 colon)	GI50 (NCI-H522 lung)	TGI (NCI-H522 lung)	GI50 (NCI/ADR-RES ovarian)	TGI (NCI/ADR-RES ovarian)	GI50 (RPMI-8226 leukemia)	TGI (RPMI-8226 leukemia)	GI50 (RXF 393 renal)	TGI (RXF 393 renal)	GI50 (SK-MEL-5 melanoma)	TGI (SK-MEL-5 melanoma)	GI50 (SR leukemia)	TGI (SR leukemia)	GI50 (UACC-257 melanoma)	TGI (UACC-257 melanoma)
CN(CCCCCl)P(=O)(OCCS(=O)(=O)CC(NC(=O)CCC(N)C(=O)O)C(=O)NC(C(=O)O)c1ccccc1)OCC1OC(n2ccc(N)nc2=O)C(O)C1O (stereo unspecified)	28 µM	> 75 µM	5.22 µM	> 75 µM	32.2 µM	> 75 µM	10.5 µM	> 75 µM	17.8 µM	> 75 µM	14.7 µM	> 68.8 µM	> 75 µM	> 75 µM	20.4 µM	> 75 µM	1.39 µM	> 51.2 µM	21.1 µM	> 69.8 µM
CC(=O)/C(=C/c1ccccc1)C(=O)CC(C)C	9.49 µM	21.7 µM	2.05 µM	3.97 µM	3.8 µM	12.8 µM	9.68 µM	22 µM	18.2 µM	58.9 µM	4.31 µM	98.2 µM	16.4 µM	30.5 µM	13.5 µM	26.9 µM	2.46 µM	7.37 µM	13.9 µM	28.9 µM
COc1cc2c3cc1Oc1c(OC)c(OC)cc4c1C(=NCC4)Cc1ccc(cc1)Oc1cc(ccc1O)C[C@H]3N(C)CC2	–	26.1 µM	–	26.8 µM	–	23.3 µM	–	25.3 µM	–	29.6 µM	–	47.5 µM	–	24.9 µM	–	24.6 µM	–	31.2 µM	–	29.6 µM
O=C(CCl)NCCNc1nccc(Nc2ccc(S(=O)(=O)Nc3ccccn3)cc2)n1	4.8 µM	20.5 µM	1.54 µM	5.53 µM	2.41 µM	6.52 µM	1.61 µM	3.98 µM	2.96 µM	83.2 µM	2.09 µM	7.6 µM	2.61 µM	7.83 µM	1.53 µM	2.94 µM	2.45 µM	11.2 µM	2.54 µM	14.4 µM
CCN(CC)CCCC(C)Nc1ccnc2cc(Cl)ccc12 (stereo unspecified)	–	48.8 µM	25.6 µM	> 100 µM and 42 µM	45.7 µM	> 100 µM	> 100 µM	> 100 µM	–	> 100 µM	–	69.6 µM	7.95 µM	> 100 µM and 26.2 µM	21.9 µM	48.2 µM and 63.3 µM	–	66.2 µM	19.8 µM	35.7 µM and > 62.1 µM
O=C1C(=C(C(F)(F)Cl)C(F)(F)Cl)C2CCC1C2 (stereo unspecified)	–	> 10 µM	–	3.61 µM	–	5.57 µM	–	0.56 µM	–	5.18 µM	–	> 3.16 µM	–	3.07 µM	–	3.11 µM	–	> 3.34 µM	–	4.2 µM
CCCc1n(Cc2ccc3ccccc3c2)cc[n+]1Cc1ccc2ccccc2c1	0.716 µM	2.07 µM	0.971 µM	2.17 µM	0.513 µM	1.89 µM	0.378 µM	1.69 µM	17.1 µM	44.3 µM	0.399 µM	1.67 µM	1.13 µM	2.49 µM	0.485 µM	1.62 µM	0.597 µM	2.62 µM	0.466 µM	1.76 µM
CSc1c(C2=C(c3cn(C)c4ccccc34)C(=O)NC2=O)c2ccccc2n1C	5.31 µM	> 25 µM	1.04 µM	> 25 µM	0.814 µM	> 25 µM	0.367 µM	1.59 µM	1.02 µM	> 25 µM	0.813 µM	> 7.04 µM	0.273 µM	1.4 µM	0.758 µM	6.88 µM	0.128 µM	1.88 µM	1.41 µM	> 25 µM
CCCCC(CCCCCC(CCCC)NCc1ccc2c(c1)OCO2)NCc1ccc2c(c1)OCO2 (stereo unspecified)	0.178 µM	0.322 µM	0.194 µM	0.369 µM	0.262 µM	0.687 µM	0.604 µM	1.27 µM	0.711 µM	1.93 µM	0.276 µM	0.805 µM	0.213 µM	0.413 µM	0.758 µM	2 µM	0.215 µM	0.495 µM	0.199 µM	0.378 µM
Cc1ccc2oc(=O)cc(/C(=C3/C=CC=N3)c3ccc[nH]3)c2c1	1.15 µM	3.12 µM	0.375 µM	1.79 µM	0.349 µM	1.42 µM	1.53 µM	5.22 µM	0.314 µM	3.77 µM	0.297 µM	1.16 µM	0.256 µM	0.748 µM	0.356 µM	1.29 µM	0.34 µM	1.46 µM	0.711 µM	4.06 µM
COc1cc(Oc2c(C)c(Cl)c(OC)c(Cl)c2OC)c2c(c1Cl)COC2=O	–	> 100 µM	–	> 100 µM	–	> 100 µM	–	33.7 µM	–	> 100 µM	–	13.1 µM	–	> 100 µM	–	49.2 µM	–	83.5 µM	–	> 100 µM
CCCCCCCCCCCCCCCCCc1nccn1CCOCCO	5.76 µg/mL	11.1 µg/mL	5.94 µg/mL	11.9 µg/mL	4.59 µg/mL	10.1 µg/mL	4.84 µg/mL	10.2 µg/mL	20.4 µg/mL	37.5 µg/mL	3.87 µg/mL	10.9 µg/mL	5.04 µg/mL	10.1 µg/mL	4.87 µg/mL	9.61 µg/mL	4.93 µg/mL	11.9 µg/mL	5.49 µg/mL	11 µg/mL
COc1ccc(C#Cc2ccc(=O)oc2-c2cc(OC)c(OC)c(OC)c2)cc1O	3.36 µM	44 µM	3.28 µM	> 100 µM	7.98 µM	> 35.6 µM	1.1 µM	22.3 µM	2.6 µM	> 40.6 µM	7.83 µM	> 88 µM	1.12 µM	8.43 µM	0.654 µM	> 46.1 µM	0.225 µM	18.7 µM	7.87 µM	> 100 µM
O=C(CC1(O)C(=O)N(Cc2ccccc2)c2ccc(Cl)cc21)c1ccc(C(=O)NCC2CCC3(CC2)OOC2(CCCCC2)OO3)cc1 (stereo unspecified)	1.31 µM	3.02 µM	1.3 µM	4.29 µM	0.236 µM	0.544 µM	0.169 µM	0.373 µM	0.271 µM	0.833 µM	0.462 µM	2.18 µM	0.247 µM	0.608 µM	1.89 µM	4.56 µM	0.214 µM	0.531 µM	8.61 µM	> 100 µM
Cn1c(=O)c(Oc2ccc(F)cc2F)cc2cnc(NC(C)(C)CO)nc21	> 25 µM	> 25 µM	> 25 µM	> 25 µM	> 25 µM	> 25 µM	> 25 µM	> 25 µM	> 25 µM	> 25 µM	> 25 µM	> 25 µM	> 25 µM	> 25 µM	> 25 µM	> 25 µM	> 25 µM	> 25 µM	> 25 µM	> 25 µM
COC(=O)C1=C(O)[C@H](C(=O)OC)C2(O)C(C(=O)OC)[C@H](c3ccc(OC(=O)C(C)c4ccccc4)cc3)C[C@@H]1[C@@H]2C(=O)OC (stereo partly specified)	10.7 µM	20.6 µM	17.3 µM	> 50 µM	–	–	15.9 µM	45.1 µM	> 50 µM	> 50 µM	18.8 µM	> 50 µM	13.7 µM	> 50 µM	8.53 µM	23 µM	29.9 µM	> 50 µM	41.1 µM	> 50 µM
Oc1ccc(Nc2ccc3ccccc3c2)cc1	4.29 µM	17.8 µM	9.23 µM	24 µM	23 µM	65.8 µM	8.99 µM	27.7 µM	4.4 µM	67 µM	9.61 µM	> 100 µM	24.1 µM	> 100 µM	3.11 µM	11.2 µM	3.32 µM	38.3 µM	4.86 µM	34.3 µM
CC(=O)Nc1cc2cc(N)ccc2oc1=O	–	> 100 µM	–	> 100 µM	–	> 100 µM	–	> 100 µM	–	> 100 µM	–	> 100 µM	–	> 100 µM	–	> 100 µM	–	> 100 µM	–	> 100 µM
N#Cc1c(NCc2ccccc2)nc(NCc2ccccc2)c(C#N)c1-c1ccc(O)cc1	39.5 µM	> 100 µM	14.5 µM	34.1 µM	60.2 µM	> 100 µM	20.2 µM	75.1 µM	47 µM	> 100 µM	21.9 µM	> 100 µM	39.1 µM	> 100 µM	15.3 µM	34.3 µM	7.09 µM	91.7 µM	43.2 µM	> 100 µM
COC1C(O)CC(OC2CC(OC3CC(O[C@@H]4C(=O)c5c(cc6cc(OC7CC(OC8CC(O)C(O)C(C)O8)C(O)C(C)O7)c(C)c(O)c6c5O)CC4[C@H](OC)C(=O)O)OC(C)C3O)OC(C)C2O)OC1C (stereo partly specified)	3.1 µM	20 µM	1.25 µM	> 33.3 µM	2.55 µM	17.9 µM	1.7 µM	> 33.3 µM	10.3 µM	> 33.3 µM	1.73 µM	> 33.3 µM	1.1 µM	4.22 µM	1.34 µM	8.74 µM	0.922 µM	> 33.3 µM	1.94 µM	13.5 µM
C=C1C(=O)O[C@H]2[C@H]1CC/C(COC(=O)NCc1c[nH]c3ccccc13)=C\CC[C@@]1(C)O[C@@H]21	6.41 µM	19 µM	1.53 µM	3.3 µM	3.1 µM	9.69 µM	1.23 µM	2.58 µM	6.4 µM	23.1 µM	1.79 µM	6.14 µM	1.24 µM	2.72 µM	12.1 µM	25 µM	2.22 µM	8.35 µM	4.25 µM	15.9 µM
O=C(/C=C/c1ccc(Cl)cc1)c1ccccc(=O)c1O	–	8.29 µM	–	10.4 µM	–	10.8 µM	–	50.9 µM	–	2.42 µM	–	4.79 µM	–	> 100 µM	–	4.93 µM	–	> 100 µM	–	14.6 µM
CC(C)N1CCN(c2ccncc2S(=O)(=O)N2CCCCC2)CC1	–	> 100 µM	–	> 100 µM	–	> 100 µM	–	> 100 µM	–	> 100 µM	–	> 100 µM	–	> 100 µM	–	> 100 µM	–	> 100 µM	–	> 100 µM
COc1ccc(C=Nc2c(C(=O)Nc3cccc(Cl)c3C)sc3nc(C)c(C(=O)/C=C/c4ccc(OC)cc4)cc23)cc1	9.89 µM	> 50 µM	0.362 µM	> 50 µM	0.306 µM	> 50 µM	0.157 µM	–	0.197 µM	1.17 µM	1.5 µM	> 50 µM	0.163 µM	0.906 µM	0.856 µM	> 50 µM	0.421 µM	> 50 µM	2.88 µM	> 50 µM
COC(=O)c1ccc2c(c1)C(=O)c1c-2n(CCCCl)c(=O)c2cc([N+](=O)[O-])ccc12	> 100 µM	> 100 µM	42.1 µM	> 100 µM	76.8 µM	> 100 µM	51 µM	> 100 µM	> 100 µM	> 100 µM	84.5 µM	> 100 µM	> 100 µM	> 100 µM	85.7 µM	> 100 µM	4.94 µM	> 100 µM	> 100 µM	> 100 µM
Nc1c(C(=O)Nc2ccccc2)sc2nc3c(cc12)CCCCC3	1.01 µM	> 100 µM	0.46 µM	> 100 µM	–	–	4.9 µM	> 100 µM	0.507 µM	> 100 µM	0.372 µM	14.3 µM	0.321 µM	1.22 µM	0.353 µM	5.2 µM	0.337 µM	15.2 µM	1.46 µM	> 100 µM
